Results: patent EP4775586A1, “DEUTERATED TETRACYCLIC DERIVATIVE AND USE THEREOF” (priority 2023, dated 2025)

What was measured:
[1] = tested on: Mycobacterium tuberculosis H37Rv; experiment: Minimum inhibitory concentration (MIC90) against Mycobacterium tuberculosis H37Rv, Middlebrook 7H9, 96-well plate, 15 days; assay type: cell-based; settings: Mycobacterium tuberculosis H37Rv, 15 days of incubation, 90% inhibition of growth, visual reading
[2] = Pharmacokinetics and lung tissue distribution in mice, LC-MS/MS; assay type: in vivo, Balb/C mice; settings: mouse, in vivo, po, 100 mg/kg
Procedure: In this example, the pharmacokinetic parameters and lung tissue distribution of the deuterated compounds YF027, YF032, YF036, and YF044 and their respective non-deuterated control compounds (A, B, C, and D) were determined.
Balb/C mice, male (1 group at each time point, 5 mice per group, 55 mice per compound in total), 7-8 weeks old, weighing about 20 g, animal source: Beijing Vital River Laboratory Animal Technology Co., Ltd.
The test compound was completely dissolved in an 8% Tween-80 aqueous solution. A 10 mg/mL drug liquid was prepared for intraperitoneal injection and intragastric administration.
Single intragastric administration was performed at a dose of 100 mg/kg. The pharmacokinetic differences between the deuterated compounds YF027, YF032, YF036, and YF044 and their respective non-deuterated controls A, B, C, and D were compared.
The mice were fasted overnight before administration. In the experiment, orbital venous blood and lung tissue were collected from the mice at time points of no administration group (0 min) and 10 min, 20 min, 30 min, 1 h, 2 h, 3 h, 4 h, 6 h, 8 h, and 24 h after intragastric administration, and about 300 µL of blood was collected from the eyeballs each time.
The collected blood sample was placed in an anticoagulation tube, and quickly inverted and mixed well. The tube was temporarily placed on ice after being labeled. The blood samples temporarily stored on ice were subjected to low-temperature centrifugation within 1 h at 4 °C at 3000 rpm for 10 min. The supernatant obtained after centrifugation was plasma. The plasma was transferred to a new centrifuge tube and stored in a refrigerator at -80 °C for subsequent detection.
The lung tissues of the mice were collected, washed with pre-cooled normal saline to remove the residual blood and tissue fluid, dried with absorbent paper, weighed with a balance, and placed into a centrifuge tube. The tubes were marked and stored in a refrigerator at -80 °C.
The concentrations of the compounds of the present disclosure and control compounds in plasma and lung tissue were determined using LC-MS/MS. Table 2. Pharmacokinetic parameters of compound YF027 of the present disclosure and control compound A

[3] = tested on: CYP2A6; assay type: in vitro ADME, mouse
Procedure: (§1) This example was to detect the CYP450 metabolic enzyme phenotype of the deuterated compound YF027 and its non-deuterated control compound A (using a CYP450 enzyme metabolic phenotype research kit (recombinant enzymatic method/7 enzymes)-mouse liver microsome test).
(§2) • a. The test compound was prepared into a 40 mM stock solution for later use. 2.5 µL of the stock solution was taken and diluted with DMSO to a test compound concentration of 200 µM, and the compound at this concentration was used in subsequent tests. • b. The working solution concentration of the mixed positive substrates, phenacetin and testosterone, was 200 µM.
(§3) 1) The components of the kit were thawed in an ice bath. The mixture was well mixed by vortexing and then placed on ice for later use. 2) In addition to the microsomes, the other components of the incubation systems were mixed according to the ratios and well mixed by pipetting, and the ratios of the incubation systems are shown below; Table 6. Incubation system of positive control group
(§4) The inhibitors were quinidine, naphthoflavone, pilocarpine, sodium diethyldithiocarbamate, ticlopidine, ketoconazole, and sulfaphenazole, which corresponded to the inhibition of CYP450 enzymes CYP2D6, CYP1A2, CYP2A6, CYP2E1, CYP2C19, CYP3A4, and CYP2C9, respectively. Table 9. Incubation system of negative control group
(§5) 3) Except for the negative control group (Table 9), 3.125 µL of liver microsomes was added to each of the above incubation systems to prepare 125 µL of reaction solution. The reaction solutions were well mixed by vortexing, and then placed in a water bath at 37 °C to initiate the reaction. A timer was set. 4) At time points of 0 min and 90 min, 50 µL of reaction solution was taken, and a pre-cooled acetonitrile solution was added to the reaction solution. The mixture was quickly well mixed by vortexing to stop the reaction. 5) Mass spectrometry detection pretreatment of reaction solution
(§6) The reaction solution was cryopreserved in a refrigerator at -80 °C overnight and then centrifuged for mass spectrometry detection.
(§7) The detection values after 90 min of incubation were processed as ratios relative to the 0-min detection values to determine the metabolic rate of the compounds in different experimental groups after 90 min. The metabolic inhibition rate was then calculated using the formula: Inhibition rate (%) = (1 - metabolic rate of sample with inhibitor/metabolic rate of sample without inhibitor) × 100%, as shown in Table 10 below. […] The metabolic inhibition rate reflects the effect on the metabolic elimination of the drug after adding different selective inhibitors. Therefore, when the metabolic inhibition rate of a specific enzyme is ≥ 25%, the contribution of the specific enzyme to the clearance of the drug under study can be inferred to be ≥ 25% based on the results of the in vitro metabolism study.

[4] = tested on: CYP2C19; assay type: in vitro ADME, mouse
Procedure: as §1, §2, §3, §4, §5, §6, §7

[5] = tested on: CYP2C9; assay type: in vitro ADME, mouse
Procedure: as §1, §2, §3, §4, §5, §6, §7

[6] = tested on: CYP2D6; assay type: in vitro ADME, mouse
Procedure: as §1, §2, §3, §4, §5, §6, §7

[7] = target: T1, CYP1A2 (Mus musculus, UniProt P00186); assay type: in vitro ADME
T1 construct: from tissue; host or cells: mouse liver microsomes (component of a kit)
T1 sequence (P00186 1-513): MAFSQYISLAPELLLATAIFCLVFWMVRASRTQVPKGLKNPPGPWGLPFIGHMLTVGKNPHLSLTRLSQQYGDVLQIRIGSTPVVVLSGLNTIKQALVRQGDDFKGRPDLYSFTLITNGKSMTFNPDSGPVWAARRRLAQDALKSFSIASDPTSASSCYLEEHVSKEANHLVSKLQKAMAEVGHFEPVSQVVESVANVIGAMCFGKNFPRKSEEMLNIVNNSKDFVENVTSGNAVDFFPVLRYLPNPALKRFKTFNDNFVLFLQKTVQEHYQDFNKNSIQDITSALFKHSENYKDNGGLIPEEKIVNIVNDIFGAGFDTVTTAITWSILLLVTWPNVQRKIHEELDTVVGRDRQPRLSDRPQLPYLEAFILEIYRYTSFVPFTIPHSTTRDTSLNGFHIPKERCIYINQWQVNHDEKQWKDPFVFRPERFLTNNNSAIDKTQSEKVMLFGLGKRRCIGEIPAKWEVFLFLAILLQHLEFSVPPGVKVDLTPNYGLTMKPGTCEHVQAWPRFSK
Procedure: as §1, §2, §3, §4, §5, §6
as §7, with “Therefore, when the metabolic inhibition rate of a specific enzyme is ≥ 25%, the contribution of the specific enzyme to the clearance of the drug under study can be inferred to be ≥ 25% based on the results of the in vitro metabolism study.” left out

[8] = target: T2, CYP2E1 (Mus musculus, UniProt Q05421); assay type: in vitro ADME
T2 construct: from tissue; host or cells: mouse liver microsomes (component of a kit)
T2 sequence (Q05421 whole entry): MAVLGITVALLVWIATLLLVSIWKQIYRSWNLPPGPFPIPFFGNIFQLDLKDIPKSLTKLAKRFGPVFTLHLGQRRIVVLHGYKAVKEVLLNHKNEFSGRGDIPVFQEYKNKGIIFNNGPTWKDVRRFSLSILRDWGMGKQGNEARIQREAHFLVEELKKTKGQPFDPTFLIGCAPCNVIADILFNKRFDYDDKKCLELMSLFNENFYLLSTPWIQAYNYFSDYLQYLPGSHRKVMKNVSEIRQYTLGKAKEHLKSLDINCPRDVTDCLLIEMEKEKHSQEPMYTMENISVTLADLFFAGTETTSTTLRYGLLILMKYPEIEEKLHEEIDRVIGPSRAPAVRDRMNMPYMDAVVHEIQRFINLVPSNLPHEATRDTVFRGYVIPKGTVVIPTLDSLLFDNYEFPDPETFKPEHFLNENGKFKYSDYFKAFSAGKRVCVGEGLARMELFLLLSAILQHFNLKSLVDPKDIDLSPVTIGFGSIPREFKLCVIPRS
Procedure: as §1, §2, §3, §4, §5, §6
as §7, with “Therefore, when the metabolic inhibition rate of a specific enzyme is ≥ 25%, the contribution of the specific enzyme to the clearance of the drug under study can be inferred to be ≥ 25% based on the results of the in vitro metabolism study.” left out

[9] = tested on: Mycobacterium tuberculosis H37Rv; assay type: in vivo, BALB/c mice

SMILES: Cl.[2H]C1([2H])CCCC([2H])([2H])N1C([2H])([2H])c1c(O)cc(C(C)(C)C)c2oc3c4ccc(O)cc4oc(=O)c3c12 [YF027, 10-(tert-Butyl)-3,8-dihydroxy-7-((piperidin-1-yl-2,2,6,6-d4)methyl-d2)-6H-benzofuran[3,2-c]chromen-6-one hydrochloride]
- MIC90 [1]: ≤3.9 ng/mL
- AUC0-∞ [2]: 380.76 ng·h/mL
- CL [2]: 262.63 L/h/kg
- Cmax [2]: 100.26 ng/mL
- Lung tissue distribution Cmax [2]: 1406.73 ng/g
- Tmax [2]: 0.5 h
- t1/2 [2]: 1.83 h
- AUC0-t ([2]; 24 h): 367.05 ng·h/mL
- Inhibition rate [3]: 14.0%
- Inhibition rate [4]: -5.7%
- Inhibition rate [5]: 3.7%
- Inhibition rate [6]: -1.3%
- Inhibition rate [7]: 0.4%
- Inhibition rate [8]: -15.1%
- pulmonary Mycobacterium tuberculosis clearance rate ([9]; 100 mg/kg intragastrically, 4 weeks, mice): 99.0%
- reduction of pulmonary bacterial load ([9]; mouse, in vivo): 1.98 log
